Values after ≈ are worked out from the molar mass of the structure shown.
What was measured:
RAW264.7 [1] = assay: Cytotoxicity against mouse RAW264.7 cells assessed as cell viability after 24 hrs by MTT assay relative to control; assay type: functional
RAW264.7 [2] = assay: Antiinflammatory activity in mouse RAW264.7 cells assessed as inhibition of LPS-induced nitric oxide production after 24 hrs by Griess reagent based assay relative to control; assay type: functional, cell-based; details: RAW264.7, 24 h
[3] = target: Nitric oxide synthase, inducible (Homo sapiens, UniProt P35228); assay: Inhibition of iNOS (unknown origin) at 20 uM relative to control
Sequence of Nitric oxide synthase, inducible (P35228 whole entry): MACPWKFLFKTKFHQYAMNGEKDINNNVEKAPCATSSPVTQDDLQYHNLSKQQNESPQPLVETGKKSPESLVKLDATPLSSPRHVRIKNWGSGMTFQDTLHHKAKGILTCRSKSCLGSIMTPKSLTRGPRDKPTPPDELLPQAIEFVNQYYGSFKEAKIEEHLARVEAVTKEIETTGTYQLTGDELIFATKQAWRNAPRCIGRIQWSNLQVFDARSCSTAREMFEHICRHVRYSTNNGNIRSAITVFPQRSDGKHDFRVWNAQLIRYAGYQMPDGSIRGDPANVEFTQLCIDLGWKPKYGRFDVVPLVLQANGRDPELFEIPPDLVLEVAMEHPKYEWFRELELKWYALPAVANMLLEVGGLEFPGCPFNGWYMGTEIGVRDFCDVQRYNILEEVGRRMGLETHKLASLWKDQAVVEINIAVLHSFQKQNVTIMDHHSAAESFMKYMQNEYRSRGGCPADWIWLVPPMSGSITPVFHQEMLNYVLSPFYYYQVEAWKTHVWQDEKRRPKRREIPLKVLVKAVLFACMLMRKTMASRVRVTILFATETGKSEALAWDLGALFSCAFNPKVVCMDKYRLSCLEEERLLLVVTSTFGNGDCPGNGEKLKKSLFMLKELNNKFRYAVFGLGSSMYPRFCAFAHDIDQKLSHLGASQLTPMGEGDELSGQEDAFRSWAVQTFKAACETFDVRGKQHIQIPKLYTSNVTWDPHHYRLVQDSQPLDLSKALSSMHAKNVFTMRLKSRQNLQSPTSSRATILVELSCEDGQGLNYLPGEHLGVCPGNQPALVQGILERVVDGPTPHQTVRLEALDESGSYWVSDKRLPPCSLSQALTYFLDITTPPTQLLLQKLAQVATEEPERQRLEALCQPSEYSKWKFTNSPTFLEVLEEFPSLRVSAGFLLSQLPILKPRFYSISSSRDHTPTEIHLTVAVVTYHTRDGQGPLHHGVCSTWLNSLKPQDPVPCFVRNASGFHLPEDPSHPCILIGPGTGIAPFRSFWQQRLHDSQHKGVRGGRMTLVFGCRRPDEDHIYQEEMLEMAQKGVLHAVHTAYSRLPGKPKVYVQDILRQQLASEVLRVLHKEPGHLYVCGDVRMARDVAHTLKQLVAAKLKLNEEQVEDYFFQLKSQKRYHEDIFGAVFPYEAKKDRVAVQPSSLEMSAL

RAW264.7 [4] = assay: Antiinflammatory activity against mouse RAW264.7 cells assessed as inhibition of LPS induced COX2 at 30 uM preincubated for 1 hr followed by LPS stimulation measured after 18 hrs relative to control; assay type: functional
RAW264.7 [5] = assay: Antiinflammatory activity against mouse RAW264.7 cells assessed as inhibition of LPS induced iNOS at 30 uM preincubated for 1 hr followed by LPS stimulation measured after 18 hrs relative to control; assay type: functional
RAW264.7 [6] = assay: Antiinflammatory activity in mouse RAW264.7 cells assessed as inhibition of LPS-induced nitric oxide production at 25 uM relative to control; assay type: functional
BV-2 = assay: Antiinflammatory activity in mouse BV2 cells assessed as inhibition of LPS-induced nitric oxide production at 10 uM relative to control; assay type: functional
THP-1 = assay: Antiinflammatory activity against human THP1 cells assessed as inhibition of LPS induced TNF-alpha at 40 uM preincubated for 30 mins followed by LPS stimulation measured after 24 hrs by ELISA relative to control; assay type: functional
[7] = target: T1, Polyunsaturated fatty acid 5-lipoxygenase (Homo sapiens) (UniProt P09917); assay: Inhibition of 5-lox (unknown origin) at 20 uM relative to control
T1 sequence (whole entry): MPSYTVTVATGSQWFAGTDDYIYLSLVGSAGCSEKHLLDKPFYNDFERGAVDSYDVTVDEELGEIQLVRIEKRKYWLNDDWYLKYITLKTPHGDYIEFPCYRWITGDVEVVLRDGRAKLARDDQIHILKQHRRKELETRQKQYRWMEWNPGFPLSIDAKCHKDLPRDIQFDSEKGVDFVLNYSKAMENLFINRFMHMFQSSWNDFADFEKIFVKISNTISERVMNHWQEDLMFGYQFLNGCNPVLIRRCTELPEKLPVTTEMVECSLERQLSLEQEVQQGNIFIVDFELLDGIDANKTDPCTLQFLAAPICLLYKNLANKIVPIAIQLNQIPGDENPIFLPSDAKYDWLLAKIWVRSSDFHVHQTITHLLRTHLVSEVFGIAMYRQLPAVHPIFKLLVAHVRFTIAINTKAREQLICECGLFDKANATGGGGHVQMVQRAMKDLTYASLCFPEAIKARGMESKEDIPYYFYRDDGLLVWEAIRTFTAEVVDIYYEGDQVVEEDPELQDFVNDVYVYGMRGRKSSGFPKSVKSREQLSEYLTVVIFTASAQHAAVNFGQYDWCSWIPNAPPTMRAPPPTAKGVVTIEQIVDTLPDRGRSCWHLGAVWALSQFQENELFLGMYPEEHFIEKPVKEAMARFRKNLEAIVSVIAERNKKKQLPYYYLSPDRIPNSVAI

[8] = target: T2, Prostaglandin G/H synthase 2 (Homo sapiens) (UniProt P35354); assay: Inhibition of N-terminal His6-tagged recombinant human COX2 expressed in baculovirus infected sf21 cells at 20 uM relative to control
T2 sequence (whole entry): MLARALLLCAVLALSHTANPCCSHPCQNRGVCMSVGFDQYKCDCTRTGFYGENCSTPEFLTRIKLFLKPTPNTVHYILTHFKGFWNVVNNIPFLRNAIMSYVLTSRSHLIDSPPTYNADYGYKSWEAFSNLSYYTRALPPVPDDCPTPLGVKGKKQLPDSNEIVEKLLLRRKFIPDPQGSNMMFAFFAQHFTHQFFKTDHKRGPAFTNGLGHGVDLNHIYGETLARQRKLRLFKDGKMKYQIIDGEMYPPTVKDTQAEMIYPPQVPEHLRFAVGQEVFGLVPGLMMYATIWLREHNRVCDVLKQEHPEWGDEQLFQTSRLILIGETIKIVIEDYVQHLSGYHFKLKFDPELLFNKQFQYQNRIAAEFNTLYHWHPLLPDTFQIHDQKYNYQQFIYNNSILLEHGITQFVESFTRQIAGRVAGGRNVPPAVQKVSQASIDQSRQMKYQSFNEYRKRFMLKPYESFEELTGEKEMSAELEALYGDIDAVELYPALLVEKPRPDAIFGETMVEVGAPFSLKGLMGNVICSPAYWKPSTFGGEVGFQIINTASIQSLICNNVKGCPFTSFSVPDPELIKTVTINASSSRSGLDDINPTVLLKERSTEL

[9] = Inhibition of soybean 15-LOX using linoleic acid as substrate preincubated for 5 mins followed by substrate addition and measured after 20 mins by spectrophotometric analysis; parameters: species or system Glycine max
RAW264.7 [10] = assay: Antiinflammatory activity in mouse RAW264.7 cells assessed as inhibition of LPS-induced nitric oxide production at […] after 24 hrs by Griess reagent based assay relative to control; assay type: functional; parameters: dose or concentration left out as unconfirmed; details: RAW264.7, 24 h
[11] = target: T3, Prostaglandin G/H synthase 1 (Ovis aries, UniProt P05979); assay: Inhibition of ovine COX1
T3 sequence (P05979 whole entry): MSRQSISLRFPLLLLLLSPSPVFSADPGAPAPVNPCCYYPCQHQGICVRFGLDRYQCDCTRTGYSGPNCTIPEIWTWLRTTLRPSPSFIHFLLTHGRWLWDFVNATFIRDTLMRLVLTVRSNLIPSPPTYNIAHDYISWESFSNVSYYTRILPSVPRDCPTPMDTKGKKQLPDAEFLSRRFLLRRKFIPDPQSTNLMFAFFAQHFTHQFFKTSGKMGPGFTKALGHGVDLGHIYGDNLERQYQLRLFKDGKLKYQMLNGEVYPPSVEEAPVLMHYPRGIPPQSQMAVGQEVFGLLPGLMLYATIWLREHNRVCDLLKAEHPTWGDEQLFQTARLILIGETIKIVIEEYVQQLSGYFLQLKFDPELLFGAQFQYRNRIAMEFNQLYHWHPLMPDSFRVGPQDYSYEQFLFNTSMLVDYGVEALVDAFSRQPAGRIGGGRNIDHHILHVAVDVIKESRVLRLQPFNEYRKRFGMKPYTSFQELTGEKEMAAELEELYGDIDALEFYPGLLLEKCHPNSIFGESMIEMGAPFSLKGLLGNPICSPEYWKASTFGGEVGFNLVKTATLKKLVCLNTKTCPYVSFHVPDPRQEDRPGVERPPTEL

C[C@@H]1O[C@@H](O[C@H]2[C@H](O[C@H]3[C@H](O[C@H]4CC[C@@]5(C)[C@@H](CC[C@]6(C)[C@@H]5CC=C5[C@@H]7C[C@]8(C)C[C@@H](OC8=O)[C@]7(C)CC[C@]56C)[C@@]4(C)CO)O[C@H](C(=O)O)[C@@H](O)[C@@H]3O)OC[C@@H](O)[C@@H]2O)[C@H](O)[C@H](O)[C@H]1O
Activity (RAW264.7 [1]): 97.6%
IC50 (RAW264.7 [2]): 18.8 µM

COc1cc(C2OCC3C(c4ccc(O)c(OC)c4)OCC23)ccc1O (centres undefined)
inhibition [3]: 49.1%

C=C1CC[C@]2(C(=O)O[C@@H]3O[C@H](CO)[C@@H](O)[C@H](O)[C@H]3O)CC[C@]3(C)C(=CC[C@@H]4[C@@]5(C)CC[C@H](O[C@@H]6OC[C@@H](O)[C@H](O)[C@H]6O[C@@H]6O[C@H](CO)[C@@H](O)[C@H](O)[C@H]6O)C(C)(C)[C@@H]5CC[C@]43C)[C@@H]2[C@H]1C
inhibition at 30 µM (RAW264.7 [4]): 40.9%
inhibition at 30 µM (RAW264.7 [5]): 75.9%

C=C1C(=O)O[C@@H]2C[C@]3(C)C(O)CCC(C)C3(O)C[C@H]12 (some centres undefined)
inhibition at 25 µM (RAW264.7 [6]): 37.1%

COc1cc(CC2C(=O)OCC2C(O)c2ccc(OC)c(OC)c2)ccc1O (centres undefined)
inhibition at 10 µM (BV-2): 63.3%

COc1ccc(C(O)C2COC(=O)C2Cc2ccc(OC3O[C@H](CO)[C@@H](O)[C@H](O)[C@H]3O)c(OC)c2)cc1OC (some centres undefined)
inhibition at 10 µM (BV-2): 87.8%

O=C(OC1Cc2c(O)cc(O)cc2OC1c1cc(O)c(O)c(O)c1)c1cc(O)c(O)c(O)c1 (centres undefined)
inhibition at 40 µM (THP-1): 39.1%

COc1c(O)cc2c(=O)oc3c(OC)c(O[C@@H]4O[C@H](CO)[C@@H](O)[C@H](O)[C@H]4O)cc4c(=O)oc1c2c34
inhibition at 40 µM (THP-1): 47.8%

CC1=C2C[C@H]3[C@@H](C[C@]2(C)C(O)CC1=O)OC(=O)[C@@H]3C (some centres undefined)
inhibition at 25 µM (RAW264.7 [6]): 23.6%

COc1cc(C2Oc3cc(/C=C/COC(=O)CC(C)C)cc(OC)c3OC2COC(=O)CC(C)C)cc(OC)c1O (centres undefined)
inhibition [7]: 16.1%

C=C1C(=O)O[C@@H]2[C@H]3[C@@H](C)C(=O)C[C@H]3C(=C)CC[C@@H]12
inhibition [3]: 100%
inhibition [8]: 98.6%

COc1ccc(CC2COC(=O)C2Cc2cc(C(=O)O)oc(=O)c2)cc1OC (centres undefined)
inhibition at 10 µM (BV-2): 75.5%

COc1cc(CC2C(=O)OCC2Cc2cc(OC)c(O)c(C(CO)CO)c2)ccc1OC1O[C@H](CO)[C@@H](O)[C@H](O)[C@H]1O (some centres undefined)
inhibition at 10 µM (BV-2): 71.6%

C=C1[C@@H]2[C@H]3OC(=O)C(=C)[C@@H]3CCC(=C)[C@@H]2C[C@@H]1O
inhibition [3]: 99.4%
inhibition [8]: 97%

COc1cc(/C=C/C(=O)CC(=O)/C=C/c2ccc(O)c(OC)c2)ccc1O [CURCUMIN]
inhibition at 10 µM (BV-2): 53%

O=c1c2cc(O)c(O)cc2oc2cc(O)cc(O)c12
IC50 [9]: 0.04461 µg/mL (≈ 0.171 µM)
inhibition (RAW264.7 [10]): 70.8%

C[C@@H]1[C@H](O)CC[C@]2(C(=O)O)CC[C@]3(C)C(CC[C@@H]4[C@@]5(C)CC[C@H](O[C@@H]6O[C@H](C(=O)O)[C@@H](O)[C@H](O)[C@H]6O[C@@H]6O[C@H](CO)[C@H](O)[C@H](O)[C@H]6O[C@@H]6O[C@@H](C)[C@H](O)[C@@H](O)[C@H]6O)C(C)(C)[C@@H]5CC[C@]43C)[C@H]12 (some centres undefined)
Activity (RAW264.7 [1]): 96.8%
IC50 (RAW264.7 [2]): 13.2 µM

COc1cc(C2OCC3C(c4cc(OC)c(O)c(OC)c4)OCC23)cc(OC)c1O (centres undefined)
inhibition [7]: 28.5%

C[C@@H]1O[C@@H](O[C@H]2[C@H](O[C@H]3[C@H](O[C@H]4CC[C@@]5(C)[C@@H](CC[C@]6(C)[C@@H]5CC=C5[C@@H]7C[C@]8(C)C[C@@H](OC8=O)[C@]7(C)CC[C@]56C)[C@@]4(C)CO)O[C@H](C(=O)O)[C@@H](O)[C@@H]3O)O[C@H](CO)[C@H](O)[C@@H]2OC=O)[C@H](O)[C@H](O)[C@H]1O
Activity (RAW264.7 [1]): 95.2%
IC50 (RAW264.7 [2]): 16.1 µM

C=C1C(=O)O[C@@H]2C[C@@]3(C)C(=C(C)C(O)CC3O)C[C@H]12 (some centres undefined)
inhibition at 25 µM (RAW264.7 [6]): 23.8%

CC(C)=CCOc1cc(O)c2c(=O)c3cc(OCC=C(C)C)c(OCC=C(C)C)cc3oc2c1
inhibition (RAW264.7 [10]): 81.4%

C=C(C)[C@H](CC=C(C)C)C[C@]12C[C@H](CC=C(C)C)C(C)(C)[C@](CC=C(C)C)(C(=O)C(C(=O)c3ccc(O)c(O)c3)=C1O)C2=O
IC50 [9]: 0.04305 µg/mL (≈ 0.0714 µM)

COc1cc(C)c2c(=O)c3c(O)cc(OC)cc3oc2c1 [LICHEXANTHONE]
inhibition (RAW264.7 [10]): 32%

CC1CCC(O)[C@@]2(C)C[C@H]3OC(=O)[C@H](C)[C@H]3C=C12 (some centres undefined)
inhibition at 25 µM (RAW264.7 [6]): 14.6%

CC(C)=CC[C@@H]1C[C@]23C[C@@H](CC=C(C)C)C(C)(C)[C@](CC=C(C)C)(C(=O)C(C(=O)c4ccc(O)c(O)c4)=C2OC1(C)C)C3=O
inhibition (RAW264.7 [10]): 92.9%

CC1(C)CC[C@]2(C(=O)O[C@@H]3O[C@H](CO)[C@@H](O)[C@H](O)[C@H]3O)CC[C@]3(C)C(=CC[C@@H]4[C@@]5(C)CC[C@H](O[C@@H]6OC[C@@H](O)[C@H](O)[C@H]6O[C@@H]6O[C@H](CO)[C@@H](O)[C@H](O)[C@H]6O)C(C)(C)[C@@H]5CC[C@]43C)[C@@H]2C1
inhibition at 30 µM (RAW264.7 [4]): 54.6%
inhibition at 30 µM (RAW264.7 [5]): 88%

O=C(/C=C/c1ccc(O)c(O)c1)OC1CC(O)(C(=O)O)CC(O)C1OC(=O)/C=C/c1ccc(O)c(O)c1 (centres undefined)
IC50 [11]: 5.87 µM

CC(C)=CCOc1cc(O)c2c(=O)c3cc(OCC=C(C)C)c(O)cc3oc2c1
inhibition (RAW264.7 [10]): 84.2%

C=C1C(=O)OC2CC(C)=C(C(C)CCCOC(C)=O)C(OC(C)=O)C12 (centres undefined)
inhibition at 25 µM (RAW264.7 [6]): 68.9%

O=C(/C=C/c1ccc(O)c(O)c1)OC(C(=O)O)C(OC(=O)/C=C/c1ccc(O)c(O)c1)C(OC(=O)/C=C/c1ccc(O)c(O)c1)C(OC(=O)/C=C/c1ccc(O)c(O)c1)C(=O)O (centres undefined)
IC50 [11]: 2.09 µM

O=C(/C=C/c1ccc(O)c(O)c1)OC1CC(O)(C(=O)O)CC(OC(=O)/C=C/c2ccc(O)c(O)c2)C1O (centres undefined)
IC50 [11]: 4.96 µM
